The values below come from patent publication USRE47221E1, “Tricyclic compounds” (AbbVie Inc., priority 2009, dated 2019).

Some results are limits rather than exact numbers.

In the assay the target is T1, Jak3 (Homo sapiens, UniProt P52333).
T1 construct: Jak3 enzyme (aa 811-1103); expressed in SF9 cells as a GST fusion; GST; made in house; host or cells: SF9 insect cells
T1 sequence (P52333 811-1103): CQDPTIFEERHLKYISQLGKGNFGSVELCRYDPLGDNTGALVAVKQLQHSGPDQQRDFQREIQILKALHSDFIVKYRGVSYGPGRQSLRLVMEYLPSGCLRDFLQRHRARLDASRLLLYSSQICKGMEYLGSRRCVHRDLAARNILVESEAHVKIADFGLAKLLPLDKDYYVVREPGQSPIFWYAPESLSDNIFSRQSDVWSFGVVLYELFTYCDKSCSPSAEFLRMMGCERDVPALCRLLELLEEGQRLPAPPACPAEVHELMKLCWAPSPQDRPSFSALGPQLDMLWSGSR
The assay can be described thus: Jak3 enzyme data for selected compounds. Format: biochemical.
Consider `N#CC1CCN(C(=O)N2CCC[C@@H](c3ncc4cnc5[nH]ccc5n34)C2)CC1` [J.3.8], for which the concentration for half-maximal inhibition (IC50) fell in the range of 100 to 1000 nM.
For `CC[C@@H]1C[C@H](NS(=O)(=O)CCn2nccn2)C[C@@H]1c1nnc2cnc3[nH]ccc3n12` [D.1.59] the value was 100 to 1000 nM; for `CCC1CC(CNS(=O)(=O)C2CC2)CC1c1nnc2cnc3[nH]ccc3n12` (single isomer, unassigned) [AA.1.64, N-((3-ethyl-4-(6H-pyrrolo[2,3-e][1,2,4]triazolo[4,3-a]pyrazin-1-yl)cyclopentyl)methyl)cyclopropane sulfonamide], > 1000 nM.
The figure for `CC[C@@H]1C[C@H](NS(=O)(=O)N2CCC2)C[C@@H]1c1nnc2cnc3[nH]ccc3n12` [D.1.10] is 100 to 1000 nM; for `C[C@@H]1C[C@H](NS(=O)(=O)C2(C)CC2)C[C@@H]1c1ncc2cnc3[nH]ccc3n12` [D.1.77] it is 100 to 1000 nM.
The figure for `N#C[C@H]1CCN(C(=O)N2CCC[C@@H](c3ncc4cnc5[nH]ccc5n34)C2)C1` [AA.1.12, 1-((R)-3-(6H-imidazo[1,5-a]pyrrolo[2,3-e]pyrazin-1-yl)piperidine-1-carbonyl)pyrrolidine-3-carbonitrile] is < 100 nM.
The molecule `O=S(=O)(CCC(F)(F)F)NC1CCCN(c2ncc3cnc4[nH]ccc4n23)C1` (stereo not drawn) [D.1.72] showed an IC50 of 100 to 1000 nM.
The figure for `CC[C@@H]1CCN(C(=O)CC#N)C[C@@H]1c1ncc2cnc3[nH]ccc3n12` (single isomer, unassigned) [AA.1.54, 3-(cis-4-ethyl-3-(6H-imidazo[1,5-a]pyrrolo[2,3-e]pyrazin-1-yl)piperidin-1-yl)-3-oxopropanenitrile] is 100 to 1000 nM; for `C[C@@H]1CCN(c2ncc(C#N)s2)C[C@@H]1c1ncc2cnc3[nH]ccc3n12` (single isomer, unassigned) [AA.1.11, 2-(-3-(6H-imidazo[1,5-a]pyrrolo[2,3-e]pyrazin-1-yl)-4-methylpiperidin-1-yl)thiazole-5-carbonitrile] it is < 100 nM.
For `N#Cc1cnc(NC[C@H]2CC[C@@H](c3ncc4cnc5[nH]ccc5n34)C2)cn1` [D.2.15] the value was 100 to 1000 nM.
Take `C[C@@H]1CCN(C(=O)N2CCCCC2)C[C@@H]1c1ncc2cnc3[nH]ccc3n12` [I.1.1, ((3R,4R)-3-(6H-imidazo[1,5-a]pyrrolo[2,3-e]pyrazin-1-yl)-4-methylpiperidin-1-yl)(piperidin-1-yl)methanone]: the half-maximal inhibitory concentration (IC50) is < 100 nM.
For `CC[C@@H]1C[C@H](NS(=O)(=O)c2ccc(F)c(Cl)c2)C[C@@H]1c1cnc2cnc3[nH]ccc3n12` (single isomer, unassigned) [AA.1.92, 3-chloro-N-(3-ethyl-4-(3H-imidazo[1,2-a]pyrrolo[2,3-e]pyrazin-8-yl)cyclopentyl)-4-fluorobenzenesulfonamide] the value was < 100 nM.
The figure for `CC[C@@H]1C[C@H](N(C)S(=O)(=O)C2CC2)C[C@@H]1c1nnc2cnc3[nH]ccc3n12` [D.1.21] is 100 to 1000 nM.
`CC[C@H]1C[C@H](OCc2ccc(C#N)cc2)C[C@H]1c1nnc2cnc3[nH]ccc3n12` (single isomer, unassigned) [AA.1.102, 4-((3-ethyl-4-(6H-pyrrolo[2,3-e][1,2,4]triazolo[4,3-a]pyrazin-1-yl)cyclopentyloxy)methyl)benzonitrile]: the IC50 was > 1000 nM.
`CC[C@@H]1C[C@H](NS(=O)(=O)C2CC2)C[C@@H]1c1nnc2cnc3[nH]cc(C)c3n12` [LL.1.1] yielded an IC50 of 100 to 1000 nM.
For `CC[C@@H]1C[C@H](NS(=O)(=O)C2CC2)CN1c1ncc2cnc3[nH]ccc3n12` [D.1.46] the value was < 100 nM; for `O=S(=O)(NC12CCC(c3nnc4cnc5[nH]ccc5n34)(CC1)CC2)N1CCCC1` [Example #9, N-(4-(6H-pyrrolo[2,3-e][1,2,4]triazolo[4,3-a]pyrazin-1-yl)bicyclo[2.2.2]octan-1-yl)pyrrolidine-1-sulfonamide], 100 to 1000 nM.
The figure for `CC[C@@H]1C[C@H](S(=O)(=O)CC(F)(F)F)C[C@@H]1c1nnc2cnc3[nH]ccc3n12` [LL.1.4] is > 1000 nM; for `CC[C@H]1C[C@H](NS(=O)(=O)C2CC2)C[C@@H]1c1nnc2cnc3[nH]ccc3n12` (single isomer, unassigned) [AA.1.5] it is 100 to 1000 nM.
The figure for `C[C@@H]1CCN(C(=O)Nc2ccc(C#N)cc2)C[C@@H]1c1ncc2cnc3[nH]ccc3n12` [QQ.1.4] is < 100 nM; for `O=C(C1CC(F)(F)C1)N1CCC[C@@H](c2ncc3cnc4[nH]ccc4n23)C1` [H.4.1] it is 100 to 1000 nM.
For `CC[C@@H]1C[C@H](NS(=O)(=O)N2CCN(C)CC2)C[C@@H]1c1nnc2cnc3[nH]ccc3n12` [D.1.50], the concentration for half-maximal inhibition (IC50) was > 1000 nM.
The figure for `C[C@H]1C[C@H](Oc2ccc(C#N)cc2)C[C@@H]1c1nnc2cnc3[nH]ccc3n12` (single isomer, unassigned) [AA.1.94, 4-(3-methyl-4-(6H-pyrrolo[2,3-e][1,2,4]triazolo[4,3-a]pyrazin-1-yl)cyclopentyloxy)benzonitrile] is 100 to 1000 nM; for `N#Cc1cnc(N2CCC[C@@H](c3cnc4cnc5[nH]ccc5n34)C2)s1` (single isomer, unassigned) [AA.1.22, 2-(3-(3H-imidazo[1,2-a]pyrrolo[2,3,-e]pyrazin-8-yl)piperidin-1-yl)thiazole-5-carbonitrile] it is < 100 nM; for `O=S(=O)(NC12CCC(c3nnc4cnc5[nH]ccc5n34)(CC1)CC2)N1CCC1` [D.1.29] it is 100 to 1000 nM.
The figure for `C[C@@H]1CCN(C(=O)C2CCC(F)(F)CC2)C[C@@H]1c1ncc2cnc3[nH]ccc3n12` [H.1.1] is < 100 nM; for `C[C@@H]1CCN(C(=O)N2CCCC2)C[C@@H]1c1ncc2cnc3[nH]ccc3n12` (racemic) [I.2.1] it is < 100 nM; for `N#Cc1ccc(N[C@@H]2CC[C@@H](c3ncc4cnc5[nH]ccc5n34)C2)cc1` (single isomer, unassigned) [AA.1.3] it is 100 to 1000 nM.
The figure for `CC[C@@H]1C[C@@H](Oc2ccc(C(F)(F)F)cn2)C[C@@H]1c1nnc2cnc3[nH]ccc3n12` (single isomer, unassigned) [AA.1.95, 1-(2-ethyl-4-(5-(trifluoromethyl)pyridin-2-yloxy)cyclopentyl)-6H-pyrrolo[2,3-e][1,2,4]triazolo[4,3-a]pyrazine] is > 1000 nM; for `C[C@@H]1C[C@H](Nc2cnc(C#N)cn2)C[C@H]1c1cnc2cnc3[nH]ccc3n12` (single isomer, unassigned) [AA.1.18, 5-(3-(3H-imidazo[1,2-a]pyrrolo[2,3,-e]pyrazin-8-yl)-4-methylcyclopentylamino)pyrazine-2-carbonitrile] it is < 100 nM; for `CC[C@@H]1C[C@@H](Oc2ccc(C#N)c(F)c2)C[C@@H]1c1nnc2cnc3[nH]ccc3n12` (single isomer, unassigned) [AA.1.103, 4-(3-ethyl-4-(6H-pyrrolo[2,3-e][1,2,4]triazolo[4,3-a]pyrazin-1-yl)cyclopentyloxy)-2-fluorobenzonitrile] it is < 100 nM.
Turning to `CC[C@@H]1C[C@H](NS(=O)(=O)CCC(F)(F)F)CN1c1cnc2cnc3[nH]ccc3n12` [K.4.1], the IC50 is < 100 nM.
The figure for `CC[C@@H]1C[C@@H](OC2CCOCC2)C[C@@H]1c1nnc2cnc3[nH]ccc3n12` (single isomer, unassigned) [AA.1.91, 1-(2-ethyl-4-(tetrahydro-2H-pyran-4-yloxy)cyclopentyl)-6H-pyrrolo[2,3-e][1,2,4]triazolo[4,3-a]pyrazine] is 100 to 1000 nM.

By IC50 is commonly meant the concentration needed to halve the response being measured. Low readings indicate inhibition by little substance, high ones a need for much substance.
